Data published in patent US20230303549A1, “SUBSTITUTED HETEROARYLOXYPYRIDINES, THE SALTS THEREOF AND THEIR USE AS HERBICIDAL AGENTS” (Bayer Aktiengesellschaft, priority 2020, published 2023).

How the values were obtained:
Format in all cases: in vivo
[1] = tested on: Abutilon theophrasti (ABUTH); assay: Post-emergence herbicidal efficacy at 320 g/ha, greenhouse pot test; settings: visual rating vs untreated control after about 3 weeks
Method: (§1) Seeds of mono- and dicotyledonous weed plants were placed in plastic pots in sandy loam soil (doubly sown with in each case one species of mono- or dicotyledonous weed plants per pot), covered with soil and cultivated in a greenhouse under controlled growth conditions. 2 to 3 weeks after sowing, the test plants were treated at the one-leaf stage. The compounds of the invention, formulated in the form of wettable powders (WP) or as emulsion concentrates (EC), were applied onto the green parts of the plants as aqueous suspension or emulsion with addition of 0.5% additive at a water application rate of 600 liters per hectare (converted). After the test plants had been kept in the greenhouse under optimum growth conditions for about 3 weeks, the activity of the preparations was rated visually in comparison to untreated controls. For example, 100% activity=the plants have died, 0% activity=like control plants. Tables […] 11 below show the effects of selected compounds of the general formula (I) according to Table 1 on various harmful plants and an application rate corresponding to 320 g/ha, which were obtained by the experimental procedure mentioned above.

[2] = tested on: Alopecurus myosuroides (ALOMY); assay: as above; settings: visual rating vs untreated control after about 3 weeks
Method: as §1

[3] = tested on: Amaranthus retroflexus (AMARE); assay: as above; settings: visual rating vs untreated control after about 3 weeks
Method: as §1

Bassia scoparia (KCHSC) [4] = assay: as above; settings: visual rating vs untreated control after about 3 weeks
Method: as §1

Stellaria media (STEME) [5] = assay: as above; settings: visual rating vs untreated control after about 3 weeks
Method: as §1

Veronica persica (VERPE) [6] = assay: as above
Method: as §1

[7] = tested on: Amaranthus retroflexus (AMARE); assay: Post-emergence herbicidal efficacy at 80 g/ha, greenhouse pot test; settings: visual rating vs untreated control after about 3 weeks
Method: (§2) Seeds of monocotyledonous and dicotyledonous weeds and crop plants were placed in sandy loam in plastic or organic planting pots, covered with soil and cultivated in a greenhouse under controlled growth conditions. 2 to 3 weeks after sowing, the test plants were treated at the one-leaf stage. The compounds of the invention, formulated in the form of wettable powders (WP) or as emulsion concentrates (EC), were then sprayed onto the green parts of the plants as aqueous suspension or emulsion with addition of 0.5% additive at a water application rate of 600 l/ha (converted). After the test plants had been kept in the greenhouse under optimum growth conditions for about 3 weeks, the activity of the preparations was rated visually in comparison to untreated controls. For example, 100% activity=the plants have died, 0% activity=like control plants. Tables B1 to B6 below show the effects of selected compounds of the general formula (I) according to Table 1 on various harmful plants and an application rate corresponding to 80 g/ha, which were obtained by the experimental procedure mentioned above.

Viola tricolor (VIOTR) [8] = assay: as above; settings: visual rating vs untreated control after about 3 weeks
Method: as §2

[9] = tested on: Abutilon theophrasti (ABUTH); assay: Pre-emergence herbicide efficacy at 320 g/ha, greenhouse pot test; settings: visual scoring vs untreated control after about 3 weeks
Text: (§3) Seeds of mono- and dicotyledonous weed plants were placed in plastic pots in sandy loam soil (doubly sown with in each case one species of mono- or dicotyledonous weed plants per pot) and covered with soil. The compounds of the invention, formulated in the form of wettable powders (WP) or as emulsion concentrates (EC), were then applied onto the surface of the covering soil as aqueous suspension or emulsion with addition of 0.5% additive at a water application rate of 600 liters per hectare (converted). After the treatment, the pots were placed in a greenhouse and kept under good growth conditions for the test plants. After about 3 weeks, the effect of the preparations was scored visually in comparison with untreated controls as percentages. For example, 100% activity=the plants have died, 0% activity=like control plants. Tables C1 to C12 below show the effects of selected compounds of the general formula (I) according to Table 1 on various harmful plants and an application rate corresponding to 320 g/ha, which were obtained by the experimental procedure mentioned above.

[10] = tested on: Alopecurus myosuroides (ALOMY); assay: as above; settings: visual scoring vs untreated control after about 3 weeks
Text: as §3

[11] = tested on: Amaranthus retroflexus (AMARE); assay: as above; settings: visual scoring vs untreated control after about 3 weeks
Text: as §3

Bassia scoparia (KCHSC) [12] = assay: as above
Text: as §3

[13] = tested on: Digitaria sanguinalis (DIGSA); assay: as above; settings: visual scoring vs untreated control after about 3 weeks
Text: as §3

[14] = tested on: Matricaria inodora (MATIN); assay: as above; settings: visual scoring vs untreated control after about 3 weeks
Text: as §3

Poa annua (POAAN) = assay: as above; settings: visual scoring vs untreated control after about 3 weeks
Text: as §3

Setaria viridis (SETVI) [15] = assay: as above; settings: visual scoring vs untreated control after about 3 weeks
Text: as §3

Stellaria media (STEME) [16] = assay: as above; settings: visual scoring vs untreated control after about 3 weeks
Text: as §3

Veronica persica (VERPE) [17] = assay: as above; settings: visual scoring vs untreated control after about 3 weeks
Text: as §3

[18] = tested on: Abutilon theophrasti (ABUTH); assay: Pre-emergence herbicide efficacy at 80 g/ha, greenhouse pot test; settings: visual scoring vs untreated control after about 3 weeks
Text: (§4) Seeds of monocotyledonous and dicotyledonous weed plants and crop plants were placed in plastic or organic planting pots and covered with soil. The compounds of the invention, formulated in the form of wettable powders (WP) or as emulsion concentrates (EC), were then applied to the surface of the covering soil as aqueous suspension or emulsion with addition of 0.5% additive at a water application rate of […] (converted). After the treatment, the pots were placed in a greenhouse and kept under good growth conditions for the test plants. After about 3 weeks, the effect of the preparations was scored visually in comparison with untreated controls as percentages. For example, 100% activity=the plants have died, 0% activity=like control plants. Tables D1 to D12 below show the effects of selected compounds of the general formula (I) according to Table 1 on various harmful plants and an application rate corresponding to 80 g/ha, which were obtained by the experimental procedure mentioned above.

[19] = tested on: Alopecurus myosuroides (ALOMY); assay: as above; settings: visual scoring vs untreated control after about 3 weeks
Text: as §4

[20] = tested on: Amaranthus retroflexus (AMARE); assay: as above; settings: visual scoring vs untreated control after about 3 weeks
Text: as §4

[21] = tested on: Polygonum convolvulus (POLCO); assay: as above; settings: visual scoring vs untreated control after about 3 weeks
Text: as §4

Setaria viridis (SETVI) [22] = assay: as above; settings: visual scoring vs untreated control after about 3 weeks
Text: as §4

Veronica persica (VERPE) [23] = assay: as above; settings: visual scoring vs untreated control after about 3 weeks
Text: as §4

Viola tricolor (VIOTR) [24] = assay: as above; settings: visual scoring vs untreated control after about 3 weeks
Text: as §4

[25] = tested on: Polygonum convolvulus (POLCO); assay: Post-emergence herbicidal efficacy at 80 g/ha, greenhouse pot test; settings: visual rating vs untreated control after about 3 weeks
Method: as §2

[26] = tested on: Matricaria inodora (MATIN); assay: Pre-emergence herbicide efficacy at 80 g/ha, greenhouse pot test; settings: visual scoring vs untreated control after about 3 weeks
Text: as §4

[27] = 320 g/ha, visual rating vs untreated control after about 3 weeks
[28] = 320 g/ha, visual scoring vs untreated control after about 3 weeks

Cc1cc(C)c(-c2cc(C(F)(F)Cl)no2)c(Oc2ncc(Cl)cn2)n1 [Example I-8]
Post-emergence efficacy against Abutilon theophrasti (ABUTH) [1]: 90%
Post-emergence efficacy against Alopecurus myosuroides (ALOMY) [2]: 100%
Post-emergence efficacy against Amaranthus retroflexus (AMARE) [3]: 100%
Post-emergence efficacy against Bassia scoparia (KCHSC) (Bassia scoparia (KCHSC) [4]): 90%
Post-emergence action against Stellaria media (STEME) (Stellaria media (STEME) [5]): 90%
Post-emergence efficacy against Veronica persica (VERPE) (Veronica persica (VERPE) [6]; [27]): 100%
Post-emergence efficacy against Amaranthus retroflexus (AMARE) [7]: 100%
Post-emergence efficacy against Viola tricolor (VIOTR) (Viola tricolor (VIOTR) [8]): 90%
Pre-emergence efficacy against Abutilon theophrasti (ABUTH) [9]: 100%
Pre-emergence efficacy against Alopecurus myosuroides (ALOMY) [10]: 100%
Pre-emergence efficacy against Amaranthus retroflexus (AMARE) [11]: 100%
Pre-emergence efficacy against Bassia scoparia (KCHSC) (Bassia scoparia (KCHSC) [12]; [28]): 100%
Pre-emergence efficacy against Digitaria sanguinalis (DIGSA) [13]: 100%
Pre-emergence efficacy against Matricaria inodora (MATIN) [14]: 100%
Pre-emergence efficacy against Poa annua (POAAN) (Poa annua (POAAN)): 100%
Pre-emergence efficacy against Setaria viridis (SETVI) (Setaria viridis (SETVI) [15]): 90%
Pre-emergence efficacy against Stellaria media (STEME) (Stellaria media (STEME) [16]): 100%
Pre-emergence efficacy against Veronica persica (VERPE) (Veronica persica (VERPE) [17]): 100%
Pre-emergence efficacy against Abutilon theophrasti (ABUTH) [18]: 100%
Pre-emergence efficacy against Alopecurus myosuroides (ALOMY) [19]: 90%
Pre-emergence efficacy against Amaranthus retroflexus (AMARE) [20]: 100%
Pre-emergence efficacy against Polygonum convolvulus (POLCO) [21]: 90%
Pre-emergence efficacy against Setaria viridis (SETVI) (Setaria viridis (SETVI) [22]): 100%
Pre-emergence efficacy against Veronica persica (VERPE) (Veronica persica (VERPE) [23]): 80%
Pre-emergence efficacy against Viola tricolor (VIOTR) (Viola tricolor (VIOTR) [24]): 90%

Cc1cc(C)c(-c2cc(C(F)F)no2)c(Oc2ncc(Cl)cc2F)n1 [Example I-14]
Post-emergence efficacy against Abutilon theophrasti (ABUTH) [1]: 90%
Post-emergence efficacy against Alopecurus myosuroides (ALOMY) [2]: 100%
Post-emergence efficacy against Amaranthus retroflexus (AMARE) [3]: 90%
Post-emergence efficacy against Bassia scoparia (KCHSC) (Bassia scoparia (KCHSC) [4]): 100%
Post-emergence action against Stellaria media (STEME) (Stellaria media (STEME) [5]): 100%
Post-emergence efficacy against Veronica persica (VERPE) (Veronica persica (VERPE) [6]; dosage printed 80 g/ha in Table A9, visual rating after about 3 weeks): 100%
Post-emergence efficacy against Amaranthus retroflexus (AMARE) [7]: 100%
Post-emergence efficacy against Viola tricolor (VIOTR) (Viola tricolor (VIOTR) [8]): 100%
Pre-emergence efficacy against Abutilon theophrasti (ABUTH) [9]: 100%
Pre-emergence efficacy against Amaranthus retroflexus (AMARE) [11]: 100%
Pre-emergence efficacy against Bassia scoparia (KCHSC) (Bassia scoparia (KCHSC) [12]; dosage 1280 g/ha in Table C6, visual scoring after about 3 weeks): 100%
Pre-emergence efficacy against Matricaria inodora (MATIN) [14]: 100%
Pre-emergence efficacy against Poa annua (POAAN) (Poa annua (POAAN)): 100%
Pre-emergence efficacy against Setaria viridis (SETVI) (Setaria viridis (SETVI) [15]): 100%
Pre-emergence efficacy against Stellaria media (STEME) (Stellaria media (STEME) [16]): 100%
Pre-emergence efficacy against Abutilon theophrasti (ABUTH) [18]: 80%
Pre-emergence efficacy against Amaranthus retroflexus (AMARE) [20]: 100%
Pre-emergence efficacy against Viola tricolor (VIOTR) (Viola tricolor (VIOTR) [24]): 100%

Cc1cc(C)c(-c2cc(C(F)F)no2)c(Oc2cnc(Cl)cn2)n1 [Example I-11]
Post-emergence efficacy against Alopecurus myosuroides (ALOMY) [2]: 90%
Post-emergence efficacy against Amaranthus retroflexus (AMARE) [3]: 100%
Post-emergence efficacy against Bassia scoparia (KCHSC) (Bassia scoparia (KCHSC) [4]): 90%
Post-emergence action against Stellaria media (STEME) (Stellaria media (STEME) [5]): 100%
Post-emergence efficacy against Veronica persica (VERPE) (Veronica persica (VERPE) [6]; [27]): 100%
Pre-emergence efficacy against Abutilon theophrasti (ABUTH) [9]: 90%
Pre-emergence efficacy against Alopecurus myosuroides (ALOMY) [10]: 100%
Pre-emergence efficacy against Amaranthus retroflexus (AMARE) [11]: 100%
Pre-emergence efficacy against Bassia scoparia (KCHSC) (Bassia scoparia (KCHSC) [12]; [28]): 90%
Pre-emergence efficacy against Matricaria inodora (MATIN) [14]: 100%
Pre-emergence efficacy against Poa annua (POAAN) (Poa annua (POAAN)): 100%
Pre-emergence efficacy against Setaria viridis (SETVI) (Setaria viridis (SETVI) [15]): 90%
Pre-emergence efficacy against Stellaria media (STEME) (Stellaria media (STEME) [16]): 100%
Pre-emergence efficacy against Veronica persica (VERPE) (Veronica persica (VERPE) [17]): 100%

Cc1cc(C)c(-c2cc(C(F)F)no2)c(Oc2ccc(F)cn2)n1 [Example I-293]
Post-emergence efficacy against Amaranthus retroflexus (AMARE) [7]: 100%
Post-emergence efficacy against Polygonum convolvulus (POLCO) [25]: 100%
Pre-emergence efficacy against Abutilon theophrasti (ABUTH) [18]: 90%
Pre-emergence efficacy against Alopecurus myosuroides (ALOMY) [19]: 90%
Pre-emergence efficacy against Amaranthus retroflexus (AMARE) [20]: 100%
Pre-emergence efficacy against Matricaria inodora (MATIN) [26]: 100%
Pre-emergence efficacy against Polygonum convolvulus (POLCO) [21]: 80%
Pre-emergence efficacy against Setaria viridis (SETVI) (Setaria viridis (SETVI) [22]): 100%
Pre-emergence efficacy against Veronica persica (VERPE) (Veronica persica (VERPE) [23]): 80%
Pre-emergence efficacy against Viola tricolor (VIOTR) (Viola tricolor (VIOTR) [24]): 90%
